Data from paper PMC5062169, “Structural basis for ligand recognition by a Cache chemosensory domain that mediates carboxylate sensing in Pseudomonas syringae” (Scientific Reports, 2016).
Read-outs that look alike come from different tables or passages of the source.

Target: T1, PscD (PscD-SD, Cache sensor domain of chemoreceptor PscD) (Pseudomonas syringae, UniProt A0ABY1U976)
T1 construct: gene CFBP3846_03581; sensor domain, Gln31-Trp188, N-terminal His6 tag
T1 sequence (A0ABY1U976 31-188): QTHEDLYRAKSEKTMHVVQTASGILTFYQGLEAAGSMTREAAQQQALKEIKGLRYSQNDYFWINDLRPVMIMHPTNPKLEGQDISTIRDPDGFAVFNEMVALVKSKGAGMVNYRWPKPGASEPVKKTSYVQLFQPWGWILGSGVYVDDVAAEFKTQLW
Design: fluorescence thermal shift (SYPRO Orange) screen of Biolog PM1/PM2 compounds, delta Tm
Details: Biolog plate compound, exact concentration unknown, binder
Excerpt: We used high-throughput fluorescence thermal shift (FTS) assays (as described previously[16]) to screen for potential ligands of PscD-SD. FTS assays are based on the principle that ligands stabilise proteins upon binding, causing an increase in the melting temperature of the protein[22][23]. Binding can therefore be rapidly screened by measuring the difference in the temperature midpoint of unfolding (ΔTm) of a protein in the presence and absence of potential ligands. In our FTS assays, the Tm was measured by monitoring an increase in fluorescence of a dye with affinity for hydrophobic parts of the protein (i.e. SYPRO Orange), which are exposed as the protein unfolds. We screened the recombinant PscD-SD protein in FTS assays against the compounds in Biolog Phenotype Microarray (PM) plates 1 and 2 (Supplementary Tables 1 and 2). Each plate contains 95 different compounds (e.g., organic acids, sugars) and a water (no ligand) control. For use in FTS assays, the compounds were resuspended directly in water, thus generating a library of biologically relevant potential ligands. […] Fluorescent thermal shift (FTS) assays were conducted as reported previously. PscD-SD was screened for potential ligands against Biolog Phenotype Microarray (PM) plates 1 and 2 (Biolog, Hayward, CA, USA). For initial qualitative, high-throughput screening, ligands were prepared by dissolving Biolog PM compounds in 50 μL of water (each) to obtain a final concentration of approximately 10–20 mM (the exact concentrations vary from well-to-well). Screens were set up in Lightcycler 480 multiwell plates (Roche Diagnostics, Auckland, NZ) with 20 μM protein, a 5x concentration of SYPRO orange (Life Technologies, Carlsbad, CA, USA) and 5 μL of the test compound (i.e. resuspended Biolog ligands) added to each well. The plate was covered with Lightcycler 480 sealing film (Roche Diagnostics) and fluorescence signal was monitored as the temperature was increased from 20 °C to 80 °C at a rate of 1.2 °C.min^−1 in a Lightcycler 480 (Roche Diagnostics). Initial hits were further tested using known concentrations (0, 1, 2, 5 and 10 mM) of each potential ligand to confirm binding. The ligands were prepared as 10x stocks, 2 μL were added to each well, and the experiments were conducted as described above. The first derivative values (−dF/dt) from the raw fluorescence data were used to determine the melting temperature (Tm). Three biological replicates (from independently cultured and purified batches of protein) were performed for each plate screened.

Compound	Δ Tm	Δ Tm (Δ Tm)
C[N+](C)(C)CC(O)CC(=O)[O-] (racemic) [D,L-Carnitine]	-0.02 ± 0.02 °C	
NCC(O)c1ccc(O)cc1 (racemic) [D,L-Octopamine]	0.03 ± 0.03 °C	
C[C@@H](O)[C@@H](C)O [2,3-Butanediol]	0.05 ± 0.03 °C	
O=CC[C@H](O)[C@H](O)CO [2-Deoxy-D-Ribose]	0.66 ± 0.05 °C	
O=C(O)c1ccccc1O [2-Hydroxy Benzoic Acid]	0.00 ± 0.04 °C	
O=C(O)c1ccc(O)cc1 [4-Hydroxy Benzoic Acid]	0.03 ± 0.03 °C	
O=C(CO)[C@@H](O)[C@H](O)[C@@H](O)C(=O)O [5-keto-D-Gluconic Acid]	0.10 ± 0.02 °C	
CC(N)=O [Acetamide]	0.00 ± 0.00 °C	
N#C[C@H](O[C@@H]1O[C@H](CO[C@@H]2O[C@H](CO)[C@@H](O)[C@H](O)[C@H]2O)[C@@H](O)[C@H](O)[C@H]1O)c1ccccc1 [Amygdalin]	0.03 ± 0.03 °C	
OC[C@H]1O[C@@H](Oc2ccc(O)cc2)[C@H](O)[C@@H](O)[C@@H]1O [Arbutin]	0.03 ± 0.05 °C	
C/C(=C/C(=O)O)C(=O)O [Citraconic Acid]	0.08 ± 0.00 °C	
CC(O)(CC(=O)O)C(=O)O (stereo not drawn) [Citramalic Acid]	0.03 ± 0.03 °C	
OC1OC[C@@H](O)[C@@H](O)[C@@H]1O (stereo partly drawn) [D-Arabinose]	0.05 ± 0.05 °C	
OC[C@@H](O)C(O)[C@H](O)CO [D-Arabitol]	0.00 ± 0.05 °C	
C[C@@H](O)[C@H](O)[C@H](O)[C@@H](O)C=O [D-Fucose]	0.10 ± 0.11 °C	
N[C@H]1C(O)O[C@H](CO)[C@@H](O)[C@@H]1O (stereo partly drawn) [D-Glucosamine]	-0.25 ± 0.03 °C	
COC(=O)[C@@H](C)O [D-Lactic Acid Methyl Ester]	0.00 ± 0.00 °C	
OC[C@H]1O[C@@](CO)(O[C@H]2O[C@H](CO)[C@@H](O)[C@H](O)[C@H]2O)[C@@H](O[C@H]2O[C@H](CO)[C@@H](O)[C@H](O)[C@H]2O)[C@@H]1O [D-Melezitose]	0.03 ± 0.03 °C	
OC[C@H]1O[C@H](OC[C@H]2O[C@H](O[C@]3(CO)O[C@H](CO)[C@@H](O)[C@@H]3O)[C@H](O)[C@@H](O)[C@@H]2O)[C@H](O)[C@@H](O)[C@H]1O [D-Raffinose]	0.00 ± 0.00 °C	
O=C(CO)[C@@H](O)[C@@H](O)[C@H](O)CO [D-Tagatose]	0.00 ± 0.04 °C	
O=C(O)[C@@H](O)[C@H](O)C(=O)O [D-Tartaric Acid]		0.10 ± 0.11 °C

Compound	Δ Tm	Δ Tm (Δ Tm)
O=C(CO)CO [Dihydroxyacetone]	0.35 ± 0.14 °C	
NCC(=O)O [Glycine]	0.05 ± 0.05 °C	
O=C(O)[C@@H]1C[C@@H](O)CN1 [Hydroxy-L-Proline]	0.03 ± 0.05 °C	
C=C(CC(=O)O)C(=O)O [Itaconic Acid]	-0.05 ± 0.33 °C	
C[C@H](N)C(N)=O [L-Alaninamide]	0.08 ± 0.00 °C	
OC[C@H](O)C(O)[C@@H](O)CO [L-Arabitol]	0.03 ± 0.03 °C	
N=C(N)NCCC[C@H](N)C(=O)O [L-Arginine]	0.03 ± 0.03 °C	
N[C@@H](Cc1c[nH]cn1)C(=O)O [L-Histidine]	0.00 ± 0.04 °C	
N[C@@H](CCO)C(=O)O [L-Homoserine]	0.03 ± 0.03 °C	
CC[C@H](C)[C@H](N)C(=O)O [L-Isoleucine]	0.08 ± 0.00 °C	
CC(C)C[C@H](N)C(=O)O [L-Leucine]	0.05 ± 0.03 °C	
NCCCC[C@H](N)C(=O)O [L-Lysine]	0.10 ± 0.11 °C	
CSCC[C@H](N)C(=O)O [L-Methionine]	0.43 ± 0.39 °C	
N[C@@H](Cc1ccccc1)C(=O)O [L-Phenylalanine]	0.08 ± 0.00 °C	
O=C1CC[C@@H](C(=O)O)N1 [L-Pyroglutamic Acid]	0.08 ± 0.00 °C	
O=C(O)[C@H](O)[C@@H](O)C(=O)O [L-Tartaric Acid]		0.33 ± 0.29 °C
CC(C)[C@H](N)C(=O)O [L-Valine]	0.03 ± 0.03 °C	
OC[C@@H](O)[C@@H](O[C@@H]1O[C@H](CO)[C@H](O)[C@H](O)[C@H]1O)[C@H](O)[C@@H](O)CO [Lactitol]	0.08 ± 0.00 °C	
O=C(O)CC(=O)O [Malonic Acid]	0.08 ± 0.00 °C	
OC[C@@H](O)[C@@H](O[C@H]1O[C@H](CO)[C@@H](O)[C@H](O)[C@H]1O)[C@H](O)[C@@H](O)CO [Maltitol]	0.05 ± 0.05 °C	
O=C(O)[C@H](O)[C@@H](O)[C@H](O)[C@H](O)CO[C@H]1O[C@H](CO)[C@H](O)[C@H](O)[C@H]1O [Melibionic Acid]	0.08 ± 0.00 °C	

Compound	Δ Tm	Δ Tm (Δ Tm)
CC(=O)N[C@H]1C(O)O[C@H](CO)[C@H](O)[C@@H]1O (stereo partly drawn) [N-Acetyl-D-Galactosamine]	0.00 ± 0.00 °C	
CC(=O)N[C@@H](CO)[C@@H](O)[C@H](O)[C@H](O)CO [N-Acetyl-D-Glucosaminitol]	0.08 ± 0.00 °C	
CC(=O)N[C@@H](CCC(=O)O)C(=O)O [N-Acetyl-L-Glutamic Acid]	0.08 ± 0.00 °C	
CC(=O)N[C@H]1[C@H]([C@H](O)[C@H](O)CO)OC(O)(C(=O)O)C[C@@H]1O (stereo partly drawn) [N-Acetyl-Neuraminic Acid]	0.08 ± 0.00 °C	
O=C(O)C(=O)O [Oxalic Acid]	0.03 ± 0.03 °C	
NCCCCN [Putrescine]	0.03 ± 0.05 °C	
O=C(O)[C@]1(O)C[C@@H](O)[C@@H](O)[C@H](O)C1 [Quinic Acid]	0.00 ± 0.04 °C	
OCc1ccccc1O[C@@H]1O[C@H](CO)[C@@H](O)[C@H](O)[C@H]1O [Salicin]	0.08 ± 0.00 °C	
O=C(O)CCCCCCCCC(=O)O [Sebacic Acid]	0.48 ± 0.09 °C	
CCC(C)N (stereo not drawn) [Sec-Butylamine]	0.00 ± 0.04 °C	
OC[C@@]12OC[C@@H](O1)[C@@H](O)[C@@H](O)[C@@H]2O [Sedoheptulosan]	0.08 ± 0.00 °C	
C/C=C/C=C/C(=O)O [Sorbic Acid]	0.65 ± 0.09 °C	
OC[C@H]1O[C@H](OC[C@H]2O[C@H](OC[C@H]3O[C@H](O[C@]4(CO)O[C@H](CO)[C@@H](O)[C@@H]4O)[C@H](O)[C@@H](O)[C@@H]3O)[C@H](O)[C@@H](O)[C@H]2O)[C@H](O)[C@@H](O)[C@H]1O [Stachyose]	0.05 ± 0.05 °C	
NC(=O)CCC(=O)O [Succinamic Acid]	0.18 ± 0.10 °C	
O=C(CO)[C@@H](O[C@H]1O[C@H](CO)[C@@H](O)[C@H](O)[C@H]1O)[C@H](O)[C@H](O)CO [Turanose]	0.03 ± 0.03 °C	
OC[C@H]1O[C@@H]2O[C@H]3[C@H](O)[C@@H](O)[C@@H](O[C@H]4[C@H](O)[C@@H](O)[C@@H](O[C@H]5[C@H](O)[C@@H](O)[C@@H](O[C@H]6[C@H](O)[C@@H](O)[C@@H](O[C@H]7[C@H](O)[C@@H](O)[C@@H](O[C@H]1[C@H](O)[C@H]2O)O[C@@H]7CO)O[C@@H]6CO)O[C@@H]5CO)O[C@@H]4CO)O[C@@H]3CO [α-Cyclodextrin]	0.08 ± 0.0 °C	
CO[C@H]1O[C@H](CO)[C@@H](O)[C@H](O)[C@@H]1O [α-Methyl-D-Mannoside]	0.05 ± 0.03 °C	
OC[C@H]1O[C@@H]2O[C@H]3[C@H](O)[C@@H](O)[C@@H](O[C@H]4[C@H](O)[C@@H](O)[C@@H](O[C@H]5[C@H](O)[C@@H](O)[C@@H](O[C@H]6[C@H](O)[C@@H](O)[C@@H](O[C@H]7[C@H](O)[C@@H](O)[C@@H](O[C@H]8[C@H](O)[C@@H](O)[C@@H](O[C@H]1[C@H](O)[C@H]2O)O[C@@H]8CO)O[C@@H]7CO)O[C@@H]6CO)O[C@@H]5CO)O[C@@H]4CO)O[C@@H]3CO [β-Cyclodextrin]	0.45 ± 0.0 °C	
OC[C@H]1O[C@@H](O)[C@H](O)[C@H](O)[C@@H]1O [β-D-Allose]	0.08 ± 0.00 °C	
CC(O)CC(=O)O (stereo not drawn) [β-Hydroxy Butyric Acid]	0.03 ± 0.05 °C	
CO[C@@H]1OC[C@@H](O)[C@H](O)[C@H]1O [β-Methyl-D-Xyloside]	0.10 ± 0.11 °C	
